Data published in patent US10765114B2, “4-amino-6-(pyridyl and 2-substitutedphenyl)-picolinates and 6-amino-2-(pyridyl and 2-substitutedphenyl)-pyrimidine-4-carboxylates and their use as herbicides” (Dow AgroSciences LLC, priority 2013, dated 2020).
Where two headings read alike, the source gives them in different places.

How the values were obtained:
[1] = system: Key Broadleaf Weed and Crop Species; experiment: Post-Emergent Test II (Table 5); format: in vivo; settings: post-emergence, 336 h; for pest or weed control at 70 g/ha: application rate 70 (kg ai/ha; footnote: g ai/ha); for pest or weed control at 140 g/ha: application rate 140 (kg ai/ha; footnote: g ai/ha)
In short: (§1)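 Growth stage at treatment: first or second true leaf. Application: compound in acetone/DMSO diluted into an adjuvant-containing aqueous mix, sprayed at 187 L/ha at several rates. Assessment: visual 0-100% injury at 14 days against untreated plants.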

[2] = system: Key Grass and Sedge Weeds as well as Grass Crops; experiment: Post-Emergent Test II (Table 6); format: in vivo; settings: post-emergence, 336 h, 14 days after application; for pest or weed control at 70 g/ha: 70 g ai/ha; for pest or weed control at 140 g/ha: 140 g ai/ha
In short: as §1

[3] = Abutilon theophrasti, ABUTH: velvetleaf (Abutilon theophrasti), read-out: Visual Growth Reduction (%) 14 Days After Application ABUTH
[4] = Amaranthus retroflexus, AMARE: redroot pigweed (Amaranthus retroflexus), read-out: Visual Growth Reduction (%) 14 Days After Application AMARE
[5] = Brassica napus, BRSSS: oilseed rape, canola (Brassica napus), read-out: Visual Growth Reduction (%) 14 Days After Application BRSSS
[6] = Chenopodium album, CHEAL: lambsquarters (Chenopodium album), read-out: Visual Growth Reduction (%) 14 Days After Application CHEAL
[7] = Euphorbia heterophylla, EPHHL: wild poinsettia (Euphorbia heterophylla), read-out: Visual Growth Reduction (%) 14 Days After Application EPHHL
[8] = Helianthus annuus, HELAN: sunflower (Helianthus annuus), read-out: Visual Growth Reduction (%) 14 Days After Application HELAN
[9] = Viola tricolor, VIOTR: wild pansy (Viola tricolor), read-out: Visual Growth Reduction (%) 14 Days After Application VIOTR
[10] = CYPSS, read-out: Visual Growth Reduction (%) 14 Days After Application CYPSS
[11] = DIGSA: crabgrass (Digitaria sanguinalis), read-out: Visual Growth Reduction (%) 14 Days After Application DIGSA
[12] = ORYSS (crop), read-out: Visual Growth Reduction (%) 14 Days After Application ORYSS
[13] = SETFA: giant foxtail (Setaria faberi), read-out: Visual Growth Reduction (%) 14 Days After Application SETFA
[14] = SORVU: grain sorghum (Sorghum vulgare), read-out: Visual Growth Reduction (%) 14 Days After Application SORVU
[15] = TRZSS (crop), read-out: Visual Growth Reduction (%) 14 Days After Application TRZSS
[16] = ZEAMX: maize, corn (Zea mays), read-out: Visual Growth Reduction (%) 14 Days After Application ZEAMX

With `COC(=O)c1nc(-c2ccc(Cl)c(F)c2C)c(Cl)c(N)c1Cl` [Compound 3] the pest or weed control at 70 g/ha [1, 3] was 60 to 74%, the pest or weed control at 140 g/ha [1, 3] was 60 to 74% and the pest or weed control at 70 g/ha [1, 4] was 95 to 100%. The pest or weed control at 140 g/ha [1, 4] was 95 to 100%, the pest or weed control at 70 g/ha [1, 5] was 0 to 29% and the pest or weed control at 140 g/ha [1, 5] was 0 to 29%. It also gave a pest or weed control at 70 g/ha [1, 6] of 60 to 74%, a pest or weed control at 140 g/ha [1, 6] of 75 to 84% and a pest or weed control at 70 g/ha [1, 7] of 0 to 29%. For the same compound, the pest or weed control at 140 g/ha [1, 7] was 0 to 29%, the pest or weed control at 70 g/ha [1, 8] was 75 to 84% and the pest or weed control at 140 g/ha [1, 8] was 75 to 84%. For the same compound, the pest or weed control at 70 g/ha [1, 9] was 0 to 29%, the pest or weed control at 140 g/ha [1, 9] was 0 to 29% and the pest or weed control at 70 g/ha [2, 10] was 0 to 29%. The pest or weed control at 140 g/ha [2, 10] was 0 to 29%, the pest or weed control at 70 g/ha [2, 11] was 0 to 29% and the pest or weed control at 140 g/ha [2, 11] was 0 to 29%. For the same compound, the pest or weed control at 70 g/ha [2, 12] was 0 to 29%, the pest or weed control at 140 g/ha [2, 12] was 0 to 29% and the pest or weed control at 70 g/ha [2, 13] was 0 to 29%. It also gave a pest or weed control at 140 g/ha [2, 13] of 0 to 29%, a pest or weed control at 70 g/ha [2, 14] of 0 to 29% and a pest or weed control at 140 g/ha [2, 14] of 0 to 29%. For the same compound, the pest or weed control at 70 g/ha [2, 15] was 0 to 29%, the pest or weed control at 140 g/ha [2, 15] was 0 to 29% and the pest or weed control at 70 g/ha [2, 16] was 0 to 29%. It also gave a pest or weed control at 140 g/ha [2, 16] of 0 to 29% and a melting point of 122 to 136 °C.
In the case of `COC(=O)c1nc(-c2ccc(Cl)c(F)c2Cl)cc(N)c1Cl` [Compound 72], the pest or weed control at 70 g/ha [1, 3] was 95 to 100%, the pest or weed control at 140 g/ha [1, 3] was 95 to 100% and the pest or weed control at 70 g/ha [1, 4] was 95 to 100%. For the same compound, the pest or weed control at 140 g/ha [1, 4] was 95 to 100%, the pest or weed control at 70 g/ha [1, 5] was 85 to 94% and the pest or weed control at 140 g/ha [1, 5] was 95 to 100%. For the same compound, the pest or weed control at 70 g/ha [1, 6] was 95 to 100%, the pest or weed control at 140 g/ha [1, 6] was 95 to 100% and the pest or weed control at 70 g/ha [1, 7] was 85 to 94%. It also gave a pest or weed control at 140 g/ha [1, 7] of 85 to 94%, a pest or weed control at 70 g/ha [1, 8] of 75 to 84% and a pest or weed control at 140 g/ha [1, 8] of 85 to 94%. The pest or weed control at 70 g/ha [1, 9] was 95 to 100%, the pest or weed control at 140 g/ha [1, 9] was 95 to 100% and the pest or weed control at 70 g/ha [2, 10] was 95 to 100%. The pest or weed control at 140 g/ha [2, 10] was 95 to 100%, the pest or weed control at 70 g/ha [2, 11] was 75 to 84% and the pest or weed control at 140 g/ha [2, 11] was 75 to 84%. The pest or weed control at 70 g/ha [2, 12] was 0 to 29%, the pest or weed control at 140 g/ha [2, 12] was 0 to 29% and the pest or weed control at 70 g/ha [2, 13] was 75 to 84%. It also gave a pest or weed control at 140 g/ha [2, 13] of 75 to 84%, a pest or weed control at 70 g/ha [2, 14] of 60 to 74% and a pest or weed control at 140 g/ha [2, 14] of 95 to 100%. The pest or weed control at 70 g/ha [2, 15] was 45 to 59%, the pest or weed control at 140 g/ha [2, 15] was 45 to 59% and the pest or weed control at 70 g/ha [2, 16] was 60 to 74%. It also gave a pest or weed control at 140 g/ha [2, 16] of 75 to 84% and a melting point of 183 to 189 °C.
